According to paper PMC8283659 (ACS chemical neuroscience, 2020):
Where two headings read alike, the source gives them in different places.

Legend:
DAT [1] = molecular target: DAT (Rattus norvegicus, UniProt P23977); assay: DAT radioligand binding assay; conditions: for pKi ± S.E.M. DAT [3H]WIN 35,428: mean ± S.E.M., 3 independent experiments
SERT = SERT (Rattus norvegicus, UniProt P31652); assay: SERT radioligand binding assay; conditions: for pKi ± S.E.M. SERT [3H]Citalopram: rat brain membranes (stem in methods), mean ± S.E.M., 3 independent experiments
DAT [2] = conditions: read-out: DAT Ki; cited from earlier work
NET = NET (Rattus norvegicus, UniProt Q63380); assay: NET radioligand binding assay
EGFP-hDAT = EGFP-hDAT (Homo sapiens, UniProt Q01959); assay: TIRF microscopy of surface labeling of EGFP-hDAT-expressing CAD cells; format: cell-based; conditions: 10 nM ligand, 10 min, rt; fixed cells
human DAT (hDAT) = human DAT (hDAT) (Homo sapiens, UniProt Q01959); assay: [3H]dopamine uptake inhibition in CAD cells transiently expressing hDAT; format: cell-based
[3] = read-out: Ki DAT [3H]WIN 35,428, rat striatum membranes, value in parentheses
[4] = IC50 DAT [3H]DA, value in parentheses
[5] = pIC50 ± S.E.M. DAT [3H]DA, 20 nM [3H]DA, 5 min, rt

Chain of SERT (P31652 whole entry): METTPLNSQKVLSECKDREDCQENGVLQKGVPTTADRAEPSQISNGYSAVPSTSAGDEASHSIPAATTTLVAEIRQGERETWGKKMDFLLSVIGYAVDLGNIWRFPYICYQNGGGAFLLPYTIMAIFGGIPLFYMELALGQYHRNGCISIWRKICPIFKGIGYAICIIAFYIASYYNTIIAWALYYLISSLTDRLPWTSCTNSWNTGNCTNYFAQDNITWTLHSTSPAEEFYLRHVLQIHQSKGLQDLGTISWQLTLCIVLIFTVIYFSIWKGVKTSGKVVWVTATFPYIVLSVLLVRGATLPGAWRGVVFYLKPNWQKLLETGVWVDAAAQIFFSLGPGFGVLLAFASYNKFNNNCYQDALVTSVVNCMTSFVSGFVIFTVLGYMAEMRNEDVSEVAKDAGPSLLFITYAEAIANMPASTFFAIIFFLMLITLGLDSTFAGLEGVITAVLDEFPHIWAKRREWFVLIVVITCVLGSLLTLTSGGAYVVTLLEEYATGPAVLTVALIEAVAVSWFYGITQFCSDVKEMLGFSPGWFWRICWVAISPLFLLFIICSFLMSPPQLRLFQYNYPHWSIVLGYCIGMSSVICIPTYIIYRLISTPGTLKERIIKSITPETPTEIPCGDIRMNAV
Chain of DAT (Rattus norvegicus, UniProt P23977) (P23977 whole entry): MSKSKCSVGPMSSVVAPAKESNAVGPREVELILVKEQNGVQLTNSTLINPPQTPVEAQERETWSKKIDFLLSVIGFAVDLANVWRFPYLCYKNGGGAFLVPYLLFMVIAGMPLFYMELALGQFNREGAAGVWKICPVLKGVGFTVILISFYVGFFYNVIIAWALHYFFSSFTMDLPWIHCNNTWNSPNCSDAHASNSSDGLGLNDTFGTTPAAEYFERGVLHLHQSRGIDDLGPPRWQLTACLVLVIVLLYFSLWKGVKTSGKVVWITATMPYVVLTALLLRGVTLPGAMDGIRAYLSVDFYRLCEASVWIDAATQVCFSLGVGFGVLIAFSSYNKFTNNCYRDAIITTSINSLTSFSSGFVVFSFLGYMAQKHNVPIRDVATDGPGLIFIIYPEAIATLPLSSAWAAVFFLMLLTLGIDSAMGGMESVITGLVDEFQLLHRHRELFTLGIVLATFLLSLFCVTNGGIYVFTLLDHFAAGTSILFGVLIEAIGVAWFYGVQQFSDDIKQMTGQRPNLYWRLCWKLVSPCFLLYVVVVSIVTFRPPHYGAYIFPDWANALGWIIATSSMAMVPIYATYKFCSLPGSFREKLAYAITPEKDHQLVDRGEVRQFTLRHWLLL
Chain of EGFP-hDAT (Q01959 whole entry): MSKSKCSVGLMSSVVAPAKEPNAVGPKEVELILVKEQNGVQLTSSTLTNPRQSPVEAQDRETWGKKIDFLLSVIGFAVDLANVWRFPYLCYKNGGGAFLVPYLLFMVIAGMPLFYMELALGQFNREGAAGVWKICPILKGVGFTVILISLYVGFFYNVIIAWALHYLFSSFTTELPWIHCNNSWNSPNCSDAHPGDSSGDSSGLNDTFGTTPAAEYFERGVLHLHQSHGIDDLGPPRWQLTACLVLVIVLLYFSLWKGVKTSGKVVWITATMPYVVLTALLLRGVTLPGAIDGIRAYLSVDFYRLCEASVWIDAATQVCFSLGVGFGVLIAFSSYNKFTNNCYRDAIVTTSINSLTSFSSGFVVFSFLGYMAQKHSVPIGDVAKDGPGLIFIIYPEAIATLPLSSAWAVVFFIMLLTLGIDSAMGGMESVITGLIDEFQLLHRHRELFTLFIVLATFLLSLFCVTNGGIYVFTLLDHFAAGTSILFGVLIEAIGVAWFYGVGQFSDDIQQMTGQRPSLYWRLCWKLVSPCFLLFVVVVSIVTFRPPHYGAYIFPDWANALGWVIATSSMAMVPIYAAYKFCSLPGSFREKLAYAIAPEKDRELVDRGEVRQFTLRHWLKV
Chain of human DAT (hDAT) (Q01959 whole entry): as above
Chain of NET (Q63380 1-617): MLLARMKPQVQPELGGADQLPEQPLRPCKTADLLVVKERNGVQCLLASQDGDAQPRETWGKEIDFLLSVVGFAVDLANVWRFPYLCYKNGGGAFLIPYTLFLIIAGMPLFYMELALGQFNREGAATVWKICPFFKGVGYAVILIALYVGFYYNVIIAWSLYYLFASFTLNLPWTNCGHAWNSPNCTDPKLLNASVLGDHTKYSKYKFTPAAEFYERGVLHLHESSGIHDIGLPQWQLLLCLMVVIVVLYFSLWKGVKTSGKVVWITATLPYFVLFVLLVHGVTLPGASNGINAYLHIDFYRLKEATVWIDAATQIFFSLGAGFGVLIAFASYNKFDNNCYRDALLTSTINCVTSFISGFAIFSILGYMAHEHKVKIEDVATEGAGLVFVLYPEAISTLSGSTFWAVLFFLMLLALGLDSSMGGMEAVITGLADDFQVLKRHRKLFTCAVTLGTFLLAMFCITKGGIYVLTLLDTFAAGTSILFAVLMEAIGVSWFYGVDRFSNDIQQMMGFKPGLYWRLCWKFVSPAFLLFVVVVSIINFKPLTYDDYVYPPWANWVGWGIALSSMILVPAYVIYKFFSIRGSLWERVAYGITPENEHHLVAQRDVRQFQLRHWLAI

SMILES	pKi ± S.E.M. DAT [3H]WIN 35,428 (DAT [1]; rat striatum membranes)	Ki (DAT [1]; [3]) [nM]	pKi ± S.E.M. SERT [3H]Citalopram (SERT)	Ki (DAT [2]) [nM]	Ki (NET) [nM]	Ki (DAT [1]) [nM]	surface labeling of EGFP-hDAT-expressing CAD cells, TIRF microscopy (in words) (EGFP-hDAT)	Ki (SERT) [nM]	IC50 (human DAT (hDAT); [4]) [nM]	IC50 (human DAT (hDAT); [5]) [nM]	pIC50 ± S.E.M. DAT [3H]DA (human DAT (hDAT); 20 nM [3H]DA, 5 min, rt)
COC(=O)[C@H]1[C@@H](c2ccc(Cl)c(Cl)c2)C[C@@H]2CC[C@H]1N2C [Compound 1, reference compound]	9.10 ± 0.23	0.8	7.99 ± 0.20								
CCN(CC)c1ccc2c(-c3ccc(S(=O)(=O)NCCCCCC(=O)NCCN4C5CCC4[C@@H](C(=O)OC)[C@@H](c4ccc(Cl)c(Cl)c4)C5)cc3S(=O)(=O)[O-])c3ccc(=[N+](CC)CC)cc-3oc2c1 (some centres unmarked) [Compound 2, reference compound]	7.79 ± 0.09	16	7.80 ± 0.08	18							
COC(=O)[C@H]1[C@@H](c2ccc(Cl)c(Cl)c2)C[C@@H]2CC[C@H]1N2CCOCCOCCNC(=O)c1ccc(C(=O)[O-])c(-c2c3ccc(=[N+]4CCC4)cc-3oc3cc(N4CCC4)ccc23)c1 [Compound 3, 2-(3-(Azetidin-1-ium-1-ylidene)-6-(azetidin-1-yl)-3H-xanthen-9-yl)-4-((2-(2-(2-((1R,2S,3S,5S)-3-(3,4-dichlorophenyl)-2-(methoxycarbonyl)-8-azabicyclo[3.2.1]octan-8-yl)ethoxy)ethoxy)ethyl)carbamoyl)benzoate]					225	6.03	surface labeling was observed	41.7	28	28.2	
COC(=O)[C@H]1[C@@H](c2ccc(Cl)c(Cl)c2)C[C@@H]2CC[C@H]1N2CCOCCOCCOCCOCCOCCNC(=O)c1ccc2c(c1)C1(OC2=O)c2ccc(N3CCC3)cc2[Si](C)(C)c2cc(N3CCC3)ccc21 [Compound 4, Methyl (1R,2S,3S,5S)-8-(1-(3,7-di(azetidin-1-yl)-5,5-dimethyl-3’-oxo-3’H,5H-spiro[dibenzo[b,e]siline-10,1’-isobenzofuran]-6’-yl)-1-oxo-5,8,11,14,17-pentaoxa-2-azanonadecan-19-yl)-3-(3,4-dichlorophenyl)-8-azabicyclo[3.2.1]octane-2-carboxylate]	7.55 ± 0.03	28	7.37 ± 0.05				surface labeling was observed				6.99 ± 0.15
COC(=O)[C@H]1[C@@H](c2ccc(Cl)c(Cl)c2)C[C@@H]2CC[C@H]1N2CCOCCOCCNC(=O)c1ccc2c(c1)C1(OC2=O)c2ccc(N3CCC3)cc2[Si](C)(C)c2cc(N3CCC3)ccc21 [Compound 10, Methyl (1R,2S,3S,5S)-8-(2-(2-(2-(3,7-di(azetidin-1-yl)-5,5-dimethyl-3’-oxo-3’H,5H-spiro[dibenzo[b,e]siline-10,1’-isobenzofuran]-6’-carboxamido)ethoxy)ethoxy)ethyl)-3-(3,4-dichlorophenyl)-8-azabicyclo[3.2.1]octane-2-carboxylate]					468	112		153	1150	1150	
COC(=O)[C@H]1[C@@H](c2ccc(Cl)c(Cl)c2)C[C@@H]2CC[C@H]1N2CCN1CCN(CCCCNC(=O)c2ccc3c(c2)C2(OC3=O)c3ccc(N4CCC4)cc3[Si](C)(C)c3cc(N4CCC4)ccc32)CC1 [Compound 14, Methyl (1R,2S,3S,5S)-8-(2-(4-(4-(3,7-di(azetidin-1-yl)-5,5-dimethyl-3’-oxo-3’H,5H-spiro[dibenzo[b,e]siline-10,1’-isobenzofuran]-6’-carboxamido)butyl)piperazin-1-yl)ethyl)-3-(3,4-dichlorophenyl)-8-azabicyclo[3.2.1]octane-2-carboxylate]					1200	38	the labeling was very punctate	38	160	158	
